Laboratory results taken from patent publication US20230324392A1, “METHODS AND COMPOSITIONS FOR TARGETING CYTOSOLIC DSDNA SIGNALING IN CHROMOSOMALLY UNSTABLE CANCERS” (MEMORIAL SLOAN KETTERING CANCER CENTER, priority 2020, published 2023).

Assays:
[1] = Tolerability of prolonged daily C-176 treatment, survival and necropsy; type: in vivo, mouse
Description: In B16F10-bearing animals, nearly 30% of the treated group had no evidence of disease at 98 days (FIG. 4A). […] Thus, the therapeutic effect of the STING inhibitors on metastasis is primarily mediated through inhibition of cancer cell-intrinsic STING.

[2] = system: 4T1 primary tumor; assay: Orthotopically transplanted primary 4T1 tumors, tumor size; type: in vivo, mouse; details: orthotopic, vs vehicle
Procedure: Animal metastasis studies: Animal experiments were performed in accordance with protocols approved by the MSKCC Institutional Animal Care and Use Committee. […] There was no need to randomize animals. Investigators were not blinded to group allocation. For tail vein injections, 5×10^4 4T1, 2.5×10^4 B16F10, or 10^5 CT26 cells were injected into the tail vein of 6-7-week old BALB/c (4T1 and CT26) or C57BL/6 (B16F10) mice. Metastasis was primarily assessed through overall survival. Overall survival endpoint was met when the mice died or met the criteria for euthanasia under the IACUC protocol. […] Surface lung metastases were assessed at endpoint by direct visual examination after euthanasia at which points lungs were perfused and fixed in 4% paraformaldehyde (4T1 and B16F10 experiments) or stained using India-ink (CT26 experiments). Furthermore, lung metastasis after injection of 4T1 cells was qualitatively assessed using routine hematoxylin and eosin (H&E) staining. […] Primary tumors were surgically excised on day 7 after implantation and metastatic dissemination was assessed by monitoring overall survival or on day 30 through quantification of surface lung metastases upon euthanasia. The length (L) and width (W) of the primary tumors were measured using calipers. Tumor size was calculated according to the following formula: L*W2/2. […]

O=C(Nc1ccc(I)cc1)c1ccc([N+](=O)[O-])o1 [C-176]
end-of-treatment necropsy ([1]; compared to vehicle-treated animals): no distinct pathologic abnormalities
tolerability / clinically evident toxicity ([1]; prolonged daily treatment, vs vehicle-treated animals): well tolerated and did not lead to any clinically evident toxicity
blood counts and blood chemistries ([1]; summary of Tables 9 and 10): within normal limits
baseline cortisol levels ([1]; vs vehicle): lower baseline cortisol levels
4T1 primary tumor size [2]: did not have a significant impact
